Test results as given in patent publication US20240309016A1, “MACROCYCLIC HETEROCYCLE COMPOUNDS AND USE THEREOF” (TAKEDA PHARMACEUTICAL COMPANY LIMITED, priority 2023, published 2024).
Counter-ions that a name gives are not always drawn. Like-named read-outs stand apart in the source and are kept apart here.

What was measured:
[1] = target: T1, human OX2 receptor (Homo sapiens, UniProt O43614); assay: Measurement of orexin type 2 receptor agonist activity (Experimental Example 3; calcium 5 dye, FLIPR Tetra); type: cell-based; details: compound at 1 μM; CHO cells expressing human OX2 receptor; DMSO = 0%, 10 nM orexin A (human) = 100%
T1 construct: expressed in transfected cells
T1 sequence (O43614 1-444): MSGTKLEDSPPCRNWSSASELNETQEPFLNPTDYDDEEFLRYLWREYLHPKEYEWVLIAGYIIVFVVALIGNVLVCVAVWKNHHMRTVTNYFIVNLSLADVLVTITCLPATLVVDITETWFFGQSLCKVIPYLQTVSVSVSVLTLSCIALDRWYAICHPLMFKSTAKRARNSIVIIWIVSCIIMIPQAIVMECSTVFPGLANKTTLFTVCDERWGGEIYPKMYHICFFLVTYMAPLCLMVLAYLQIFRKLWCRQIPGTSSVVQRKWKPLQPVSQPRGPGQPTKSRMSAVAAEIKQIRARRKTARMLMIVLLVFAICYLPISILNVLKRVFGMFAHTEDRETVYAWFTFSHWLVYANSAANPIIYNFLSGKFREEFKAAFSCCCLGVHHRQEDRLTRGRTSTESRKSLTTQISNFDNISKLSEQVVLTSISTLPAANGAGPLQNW
Procedure: In order to obtain cell clones that stably express human orexin type 2 receptor, human orexin type 2 (residues 1-444, NCBI Reference Sequence: AK314279) was constructed in a pcDNA3.1 (+) vector (Invitrogen) to express in mammalian cells. This plasmid DNA was transfected into CHO-K1 cells by electroporation, and stable clones were obtained by limiting dilution using resistance to G418 as a selection marker.
CHO cells in which human OX2 receptor was forcibly expressed were seeded at 5,000 cells/well into a 384-well black transparent bottom plate (Costar) in 25 ul complete media, and were then incubated at 37° C., 5% CO2 for 1 day. The next day, 25 ul of 2× calcium 5 dye (Molecular Devices) in assay buffer (HBSS (Thermo Fisher Scientific), 20 mM HEPES (Thermo Fisher Scientific), 2.5 mM probenecid). After incubation in a 5% CO2 incubator at 37° C. for 40 minutes, it was incubated at room temperature for another 20 minutes. Add 5 μL/well of the test compound diluted with assay buffer B (HBSS, 20 mM HEPES), using FLIPR Tetra (Molecular Devices) to measure the fluorescence value every 1 second for 1 minute, and then every 2 seconds for 1 minute. It was measured for 1 minute and 40 seconds. The amount of fluorescence value when DMSO is added instead of the test compound is defined as 0%, and the amount of fluorescence value when orexin A (human) (Peptide Institute) with a final concentration of 10 nM is added is defined as 100%. The activity (%) of the test compound was calculated.

[2] = target: T1, human OX2 receptor; assay: Measurement of orexin type 2 receptor agonist activity (Experimental Example 2; Fluo-4 AM calcium fluorescence, FDSS μCELL); type: cell-based; details: compound at 3 μM; CHO cells expressing human OX2 receptor; DMSO = 0%, 10 nM orexin A (human) = 100%
Procedure, shortened: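 Agonism was tested in CHO-K1 cells stably expressing human OX2 receptor (residues 1-444), loaded with Fluo-4 AM plus probenecid. Calcium fluorescence was recorded for 1 min 40 s after compound addition. Activity (%) was scaled between DMSO (0%) and 10 nM orexin A (100%) and reported at 3 μM compound.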

[3] = THF

Row | SMILES | OX2R agonist activity (1 μM, %) [1] [%] | OX2R agonist activity (3 μM, %) [2] [%] | also measured
1 | Cc1ccc2nc1Oc1cccc(c1)C[C@H]1[C@@H](NS(C)(=O)=O)CCN1C(=O)CO2 [Example 33, N-[(15aS,16S)-7-methyl-1-oxo-1,2,15a,16,17,18-hexahydro-15H-4,8-(azeno)-10,14-(metheno)pyrrolo[1,2-d][1,12,4]dioxazacyclo-heptadecin-16-yl]methanesulfonamide] | – | 102 | ring closure, yield of all isomers ([3]; from Cc1ccc(OCC(=O)O)nc1Oc1cccc(C[C@@H]2NCC[C@@H]2NS(C)(=O)=O)c1, amide bond, PyBOP, 0.92 mM, 25.0 °C, 12.0 h): 3.4%
2 | CCS(=O)(=O)N[C@H]1[C@@H](F)CN2C(=O)NCc3ccc(C)c(n3)Cc3cccc(c3F)C[C@@H]12 [Example 56, N-[(15aS,16R,17S)-17,20-difluoro-7-methyl-1-oxo-2,3,15a,16,17,18-hexahydro-1H,9H,15H-8,4-(azeno)-10,14-(metheno)pyrrolo[1,2-c][1,3]diazacycloheptadecin-16-yl]ethanesulfonamide] | – | 100 | ring closure, yield of all isomers ([3]; from CCS(=O)(=O)N[C@@H]1[C@H](Cc2cccc(Cc3nc(CN)ccc3C)c2F)NC[C@@H]1F, other bond, di(N-succinimidyl) carbonate / 4-methylmorpholine, DIPEA, 4.1 mM, 25.0 °C, 17.0 h): 3.9%
3 | Cc1ccc2nc1OCc1cccc(c1)C[C@H]1[C@@H](NS(C)(=O)=O)CCN1C(=O)NC2 [Example 68, N-[(16aS,17S)-7-methyl-1-oxo-2,3,16a,17,18,19-hexahydro-1H,10H,16H-4,8-(azeno)-11,15-(metheno)pyrrolo[1,2-j][1,8,10]oxadiazacyclo-octadecin-17-yl]methanesulfonamide] | – | 100 | ring closure, yield of all isomers ([3]; from Cc1ccc(CNC(=O)OC(C)(C)C)nc1OCc1cccc(C[C@H]2[C@@H](N(COCC[Si](C)(C)C)S(C)(=O)=O)CCN2C(=O)OC(C)(C)C)c1, other bond, di(N-succinimidyl) carbonate / N-methylmorpholine, DIPEA, 7.5 mM, 25.0 °C, 17.0 h, 2 steps): 3.7%
4 | CCS(=O)(=O)N[C@@H]1[C@@H]2Cc3c(C)ccc(c3F)Oc3nc(ccc3C)CNC(=O)N2CC1(F)F [Example 98, N-[(15aS,16R)-17,17,20-trifluoro-7,13-dimethyl-1-oxo-2,3,15a,16,17,18-hexahydro-1H,15H-4,8-(azeno)-14,10-(metheno)pyrrolo[1,2-j][1,8,10]oxadiazacyclo-heptadecin-16-yl]ethanesulfonamide] | 65 | – | –
5 | CCS(=O)(=O)N[C@@H]1[C@@H]2Cc3ccc(C)c(c3F)Oc3nc(ccc3C)CNC(=O)N2CC1(F)F [Example 101, N-[(15aS,16R)-17,17,20-trifluoro-7,11-dimethyl-1-oxo-2,3,15a,16,17,18-hexahydro-1H,15H-4,8-(azeno)-10,14-(metheno)pyrrolo[1,2-j][1,8,10]oxadiazacyclohept-adecin-16-yl]ethanesulfonamide] | 108 | – | –
6 | CCS(=O)(=O)N[C@@H]1[C@@H]2Cc3cccc(c3F)Cc3nc(ccc3C)OCC(=O)N2CC1(F)F [Example 102, N-[(15aS,16R)-17,17,20-trifluoro-7-methyl-1-oxo-1,2,15a,16,17,18-hexahydro-9H,15H-4,8-(azeno)-10,14-(metheno)pyrrolo[1,2-d][1,4]oxazacycloheptadecin-16-yl]ethanesulfonamide] | 94 | – | –
7 | CCS(=O)(=O)N[C@@H]1[C@@H]2Cc3cccc(c3F)Cc3cc(ccc3C)CNC(=O)N2CC1(F)F [Example 103, N-[(15aS,16R)-17,17,20-trifluoro-7-methyl-1-oxo-2,3,15a,16,17,18-hexahydro-1H,9H,15H-4,8:10,14-di(metheno)pyrrolo[1,2-c][1,3]diazacycloheptadecin-16-yl]ethanesulfonamide] | 104 | – | –
8 | CCS(=O)(=O)N[C@@H]1[C@@H]2Cc3cccc(c3F)Cc3nc(ccc3C)CNC(=O)N2CC1(F)F [Example 104, N-[(15aS,16R)-17,17,20-trifluoro-7-methyl-1-oxo-2,3,15a,16,17,18-hexahydro-1H,9H,15H-4,8-(azeno)-10,14-(metheno)pyrrolo[1,2-c][1,3]diazacycloheptadecin-16-yl]ethanesulfonamide hydrochloride] | 109 | – | –

Further lines, with some results ahead:

Row | OX2R agonist activity (1 μM, %) [1] [%] | OX2R agonist activity (3 μM, %) [2] [%] | SMILES | also measured
9 | 106 | – | CCS(=O)(=O)N[C@@H]1[C@@H]2Cc3cccc(c3F)[C@@H](C)c3nc(ccc3C)CNC(=O)N2CC1(F)F (single isomer, unassigned) [Example 105, N-[(9R,15aS,16R)-17,17,20-trifluoro-7,9-dimethyl-1-oxo-2,3,15a,16,17,18-hexahydro-1H,9H,15H-4,8-(azeno)-10,14-(metheno)pyrrolo[1,2-c][1,3]diazacycloheptadecin-16-yl]ethanesulfonamide or N-[(9S,15aS,16R)-17,17,20-trifluoro-7,9-dimethyl-1-oxo-2,3,15a,16,17,18-hexahydro-1H,9H,15H-4,8-(azeno)-10,14-(metheno)pyrrolo[1,2-c][1,3]diazacycloheptadecin-16-yl]ethanesulfonamide] | –
10 | 90 | – | CCS(=O)(=O)N[C@@H]1[C@@H]2Cc3cccc(c3F)[C@H](C)c3nc(ccc3C)CNC(=O)N2CC1(F)F (single isomer, unassigned) [Example 106] | –
11 | – | 104 | Cc1cc(F)c2nc1Oc1cccc(c1F)C[C@H]1[C@@H](NS(C)(=O)=O)C(F)(F)CN1C(=O)NC2 [Example 36, N-[(15aS,16R)-5,17,17,20-tetrafluoro-7-methyl-1-oxo-2,3,15a,16,17,18-hexahydro-1H,15H-4,8-(azeno)-14,10-(metheno)pyrrolo[1,2-j][1,8,10]oxadiazacyclo-heptadecin-16-yl]methanesulfonamide] | ring closure, yield of all isomers ([3]; from Cc1cc(F)c(CN)nc1Oc1cccc(C[C@@H]2NCC(F)(F)[C@@H]2NS(C)(=O)=O)c1F, other bond, di(N-succinimidyl) carbonate, 2.95 mM, 60.0 °C, 1.5 h, 2 steps): 38.2%
12 | – | 103 | Cc1ccc2nc1Oc1cccc(c1F)C[C@H]1[C@@H](NS(C)(=O)=O)C(F)(F)CN1C(=O)NC2C (stereo partly drawn) [Example 51, N-[(15aS,16R)-17,17,20-trifluoro-3,7-dimethyl-1-oxo-2,3,15a,16,17,18-hexahydro-1H,15H-4,8-(azeno)-14,10-(metheno)pyrrolo[1,2-j][1,8,10]oxadiazacyclo-heptadecin-16-yl]methanesulfonamide (optical isomer)] | ring closure, yield of all isomers ([3]; from Cc1ccc(C(C)N)nc1Oc1cccc(C[C@@H]2NCC(F)(F)[C@@H]2NS(C)(=O)=O)c1F, other bond, di(N-succinimidyl) carbonate, 1.23 mM, 60.0 °C): 7.7%
13 | – | 87 | Cc1ccc2nc1COc1cccc(c1F)C[C@H]1[C@@H](NS(C)(=O)=O)C(F)(F)CN1C(=O)NC2 [Example 54, N-[(16aS,17R)-18,18,21-trifluoro-7-methyl-1-oxo-2,3,16a,17,18,19-hexahydro-1H,9H,16H-4,8-(azeno)-11,15-(metheno)pyrrolo[2,1-h][1,9,11]oxadiazacyclo-octadecin-17-yl]methanesulfonamide] | ring closure, yield of all isomers ([3]; from Cc1ccc(CNC(=O)OC(C)(C)C)nc1COc1cccc(C[C@H]2[C@@H](NS(C)(=O)=O)C(F)(F)CN2C(=O)OC(C)(C)C)c1F, other bond, di(N-succinimidyl) carbonate / N-methylmorpholine, DIPEA, 2.78 mM, 60.0 °C, 22.0 h, 2 steps): 14.4%
14 | 101 | – | CC(C)S(=O)(=O)N[C@@H]1[C@@H]2Cc3cccc(c3F)Oc3nc(ccc3Cl)CNC(=O)N2CC1(F)F [Example 108, N-[(15aS,16R)-7-chloro-17,17,20-trifluoro-1-oxo-2,3,15a,16,17,18-hexahydro-1H,15H-4,8-(azeno)-10,14-(metheno)pyrrolo[1,2-j][1,8,10]oxadiazacyclo-heptadecin-16-yl]propane-2-sulfonamide] | –
15 | 108 | – | Cc1cc(F)c2nc1Oc1cccc(c1F)C[C@H]1[C@@H](NS(=O)(=O)C(C)C)C(F)(F)CN1C(=O)NC2 [Example 109, N-[(15aS,16R)-5,17,17,20-tetrafluoro-7-methyl-1-oxo-2,3,15a,16,17,18-hexahydro-1H,15H-4,8-(azeno)-10,14-(metheno)pyrrolo[1,2-j][1,8,10]oxadiazacyclo-heptadecin-16-yl]propane-2-sulfonamide] | –
